“And” between values parts separate entries of the source, which are not always exact repeats. Equal values may be shown once. *1 amine or outer side, *2 acyl side, *3 side chain or, on linkers, in order; H or OH if unused. Where a SMILES comes first, the peptide text is derived from it. Bridges are numbered along the chain shown (N, C = ends). [ ]: non-standard residue; d: D form. The star is where a group is joined. Ethylenediamine = C(CN[*:2])N[*:1]; Aad = N[C@@H](CCCC(=O)O)C(=O)O; Pen = CC(C)(S)[C@H](N)C(=O)O; NH(CH2)5NH2 = NCCCCCN*; NH(CH2)3NH2 = NCCCN*
Key:
[1] = target: T1, Vitronectin Receptor (αvβ3) (Homo sapiens, UniProt P05106+P06756); test: Human Vitronectin-Vitronectin Receptor (αvβ3) ELISA Assay; assay type: binding; conditions: purified human αvβ3, vitronectin-coated plates; read-out: ELISA IC50 Vitronectin VnR
T1 construct: Human vitronection receptor (VnR) is purified from human placenta; from tissue; host or cells: human placenta
T1 sequence (P06756 31-889 limits assumed): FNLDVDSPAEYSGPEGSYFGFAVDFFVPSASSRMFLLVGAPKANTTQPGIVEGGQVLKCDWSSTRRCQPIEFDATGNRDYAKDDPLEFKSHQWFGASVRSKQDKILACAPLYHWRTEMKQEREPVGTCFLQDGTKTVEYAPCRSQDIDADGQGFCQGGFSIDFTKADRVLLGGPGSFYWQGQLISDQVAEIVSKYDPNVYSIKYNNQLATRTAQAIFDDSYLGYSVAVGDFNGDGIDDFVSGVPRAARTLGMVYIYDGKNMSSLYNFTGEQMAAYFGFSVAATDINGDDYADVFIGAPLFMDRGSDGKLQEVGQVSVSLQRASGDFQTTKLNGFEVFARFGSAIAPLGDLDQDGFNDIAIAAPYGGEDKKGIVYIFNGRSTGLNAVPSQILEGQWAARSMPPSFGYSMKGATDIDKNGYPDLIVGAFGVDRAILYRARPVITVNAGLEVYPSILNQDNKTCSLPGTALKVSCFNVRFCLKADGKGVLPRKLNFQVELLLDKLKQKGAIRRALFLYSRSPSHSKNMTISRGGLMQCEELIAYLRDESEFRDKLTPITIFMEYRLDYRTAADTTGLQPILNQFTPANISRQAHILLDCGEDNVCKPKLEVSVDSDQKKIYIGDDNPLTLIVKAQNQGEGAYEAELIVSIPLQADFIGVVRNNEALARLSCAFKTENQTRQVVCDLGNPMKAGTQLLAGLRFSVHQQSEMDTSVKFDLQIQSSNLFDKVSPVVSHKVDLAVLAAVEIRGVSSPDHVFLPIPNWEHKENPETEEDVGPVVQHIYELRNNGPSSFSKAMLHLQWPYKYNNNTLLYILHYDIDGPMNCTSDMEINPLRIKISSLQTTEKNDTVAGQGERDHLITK
T1 sequence (P06756 891-1048 partner limits assumed): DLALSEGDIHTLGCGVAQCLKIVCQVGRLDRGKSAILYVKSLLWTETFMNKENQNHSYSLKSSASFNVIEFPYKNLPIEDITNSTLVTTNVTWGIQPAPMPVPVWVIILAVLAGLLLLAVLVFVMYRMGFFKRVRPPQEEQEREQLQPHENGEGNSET
T1 sequence (P05106 27-788): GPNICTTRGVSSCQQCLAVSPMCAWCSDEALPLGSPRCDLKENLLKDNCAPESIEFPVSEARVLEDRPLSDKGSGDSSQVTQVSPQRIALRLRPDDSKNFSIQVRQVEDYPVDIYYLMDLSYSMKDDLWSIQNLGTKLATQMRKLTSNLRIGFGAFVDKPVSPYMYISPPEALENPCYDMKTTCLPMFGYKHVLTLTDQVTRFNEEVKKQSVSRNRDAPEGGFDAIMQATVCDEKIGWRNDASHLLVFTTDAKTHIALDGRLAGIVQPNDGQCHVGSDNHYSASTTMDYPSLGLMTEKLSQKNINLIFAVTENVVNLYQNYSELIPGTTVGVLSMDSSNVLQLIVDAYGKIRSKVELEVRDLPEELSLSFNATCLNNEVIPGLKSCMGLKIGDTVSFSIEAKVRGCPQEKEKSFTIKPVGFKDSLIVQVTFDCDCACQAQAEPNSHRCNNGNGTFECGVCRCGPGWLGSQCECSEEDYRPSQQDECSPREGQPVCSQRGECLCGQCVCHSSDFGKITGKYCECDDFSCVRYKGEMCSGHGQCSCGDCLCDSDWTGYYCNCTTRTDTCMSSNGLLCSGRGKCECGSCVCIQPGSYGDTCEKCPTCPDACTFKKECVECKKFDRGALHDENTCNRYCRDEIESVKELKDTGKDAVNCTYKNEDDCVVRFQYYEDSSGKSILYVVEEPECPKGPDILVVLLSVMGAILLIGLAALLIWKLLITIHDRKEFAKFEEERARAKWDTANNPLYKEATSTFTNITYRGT
Text: Human vitronectin (Vn) is isolated from human plasma and purified by affinity chromatography by the method of Yatohgo et. al., (Cell Structure and Function 13:281-292 [1988]).
Human vitronection receptor (VnR) is purified from human placenta by the method of Pytela et al., (Methods Enzymol., 144:475 [1987]). Alternatively the αvβ3 receptor can be purified from some cell lines (e.g., human embryonic kidney 293 cells) transfected with DNA sequences for both the αv and β3 subunits. The subunits are purified by employing octylglucoside extraction followed by Con-A, Heparin-Sepharose, and S-300 Chromatography.
Anti-GP IIb IIIa monoclonal antibodies specific for human GP IIIa are prepared by the method of Newman et al. (Blood, 65:227-232 [1985]), or a similar procedure. This mouse Mab is specific for the β3 subunit of the vitronectin receptor.
Rabbit Fab 2 anti-mouse Fc fragment horse radish peroxidase conjugate (anti-MuFc HRP) is obtained from PelFreeze (cat. no. 715305-1).
Maxisorp microtiter plates are coated with 2 μg/ml human vitronectin dissolved in PBS ([…]) and stored overnight at 4° C. The plates are washed two times with PBS-0.05% Tween-20 (wash buffer) and blocked by incubating with about 150 μl/well of assay buffer (1%, BSA [RIA grade or better] in 50 mM Tris-HCl, 100 mM NaCl, 1 mM MgCl2, CaCl2, MnCl2 pH 7.4) for 60 minutes. Dilutions of standards are prepared and putative inhibitors (Table 3) are dissolved in assay buffer. The blocked plates are emptied and 25 μl/well of inhibitor or standard solution is added to each well. Twenty-five μl of a 30 μg/ml solution of purified αvβ3 in assay buffer is pipetted into the coated plate. The final concentration of receptor in the assay well is about 15 μg/ml. The plate is incubated on a shaker for 60 minutes. Meanwhile, for each microtite plate, 6 ml buffer solution containing 1.5 μg/ml of mouse monoclonal antibody specific for β3 is prepared. To this solution is added μl of the secondary antibody, which is anti-mouse-Fc-HRP antibody conjugate. For example, for one plate, prepare 6 ml of a 1.5 μg/ml mouse Mab solution to which is added 1 μl of anti-mouse-Fc-HRP antibody stock, (this represents a 1:6000 dilution of the antibody - HRP conjugate). This mixture is allowed to incubate during the receptor-inhibitor incubation. The assay plates are washed 4 times with PBS-Tween and 50 μl/well of the antibody mixture is then pipetted into the plate for a 60 minute incubation. The plate is washed 4 times and the color reaction is developed with 50 μl/well of 0.67 mg/ml o-phenyldiamine in PBS containing 0.012% H2 O2. Alternatively, 16 mM citric acid, 50 mM Na2 PO4 at pH 5.0 can be used as a substrate buffer. The reaction is stopped with 50 μl/well 1M H2 SO4. The plates are read at 492-405 nm and the data analyzed by four-parameter fit.

[2] = target: human platelet rich plasma (PRP) (Homo sapiens, UniProt P05106+P08514); test: In Vitro Human Platelet Aggregation Assay; assay type: cell-based; conditions: human PRP; read-out: Human Platelet Aggregation IC50
Sequence of human platelet rich plasma (PRP) (P08514 32-1039): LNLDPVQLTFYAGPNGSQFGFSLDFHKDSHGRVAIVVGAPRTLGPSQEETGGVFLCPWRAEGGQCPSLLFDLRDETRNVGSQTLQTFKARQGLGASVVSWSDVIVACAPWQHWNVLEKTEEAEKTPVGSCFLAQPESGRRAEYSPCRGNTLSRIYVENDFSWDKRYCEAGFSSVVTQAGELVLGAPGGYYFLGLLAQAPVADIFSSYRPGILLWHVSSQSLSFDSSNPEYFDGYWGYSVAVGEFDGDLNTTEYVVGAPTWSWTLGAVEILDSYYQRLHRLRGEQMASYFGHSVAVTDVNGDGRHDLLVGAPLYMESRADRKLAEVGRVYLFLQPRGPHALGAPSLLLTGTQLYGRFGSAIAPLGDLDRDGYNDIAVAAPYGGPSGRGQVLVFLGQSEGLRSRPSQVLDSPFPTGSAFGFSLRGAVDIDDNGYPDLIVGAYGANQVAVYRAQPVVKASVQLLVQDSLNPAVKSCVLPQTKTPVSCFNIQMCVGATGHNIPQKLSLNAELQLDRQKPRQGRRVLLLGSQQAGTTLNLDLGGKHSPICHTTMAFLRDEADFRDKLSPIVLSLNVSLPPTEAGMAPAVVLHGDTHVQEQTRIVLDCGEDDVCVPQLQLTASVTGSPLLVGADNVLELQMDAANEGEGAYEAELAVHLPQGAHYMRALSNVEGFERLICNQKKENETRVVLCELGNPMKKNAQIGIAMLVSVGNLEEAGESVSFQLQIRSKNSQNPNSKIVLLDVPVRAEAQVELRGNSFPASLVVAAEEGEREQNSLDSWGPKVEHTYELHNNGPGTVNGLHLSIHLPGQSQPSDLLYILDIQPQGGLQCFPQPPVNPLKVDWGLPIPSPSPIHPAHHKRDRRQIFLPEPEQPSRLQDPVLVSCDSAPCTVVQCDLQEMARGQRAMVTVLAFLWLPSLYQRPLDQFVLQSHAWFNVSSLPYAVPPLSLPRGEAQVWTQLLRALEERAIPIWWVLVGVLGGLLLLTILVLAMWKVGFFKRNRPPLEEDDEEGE
Sequence of human platelet rich plasma (PRP) (P05106 27-788): as the sequence (P05106 27-788) above
Method in brief: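 Citrated human PRP, diluted with PPP to about 300,000 platelets/μl from donors free of aspirin for two weeks, was preincubated with inhibitor or PBS for 5 minutes at 25° C. Aggregation was then triggered by collagen 1 μg/ml, U46619 100 ng/ml or ADP 17 μM and followed by light transmission.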

[3] = system: New Zealand White rabbits; test: Rabbit cutaneous bleeding time (CBT); conditions: for Rabbit BT Ratio: Example 1, at the % P.A. inhibition given
Method: Unanesthetized male New Zealand White rabbits (2.5-3.5 kg) are placed in a standard rabbit restrainer. Ears are shaved and a 20 G Teflon catheter with flowswitch (Viggo) is placed in the medial artery, flushed with saline and locked with 1 ml of heparinized saline (10 m/ml). A 22 G catheter (Abbott) fitted with an injection cap (Medex) is placed in the marginal vein of the same ear. Saline or a GP IIb IIIa receptor antagonist, at a concentration of 1 to 3 mg/ml, is infused via the venous catheter. At time 0, 41% of the dose is given as a bolus over 2 minutes. The remainder is continuously infused over the following 60 minutes. Blood samples (3.2 ml) are collected into syringes without needles via the arterial catheter at -10, -5, 10, 45, and 60 minutes. The first 0.5 ml is discarded and the following 2.7 ml is collected directly into a syringe containing 0.3 ml of 3.8% sodium citrate. The sample is divided into 1.5 ml aliquots and centrifuged at room temperature for 5 seconds at 12,000 G. The resulting platelet rich plasma (PRP) is used to measure ex-vivo platelet aggregation (XPA). At -10 and 60 minutes an additional 1 cml sample is drawn for an automated blood count (Baker instruments). Catheters are flushed and locked after every sample.
CBT is measured at -10, -5, 10, and 45 minutes on the opposite ear, using an automated incision-making instrument (Surgicutt®, ITD). An incision (5mm×1 mm deep) is made on the dorsal surface of the ear at sites not supplied by major blood vessels. Blood is blotted away with absorbent paper placed near the incision site, every 2 to 15 seconds, to a maximum of 15 minutes. Cessation of bleeding is defined as no blood forming at the incision site for 15 seconds. The range of duplicate CBT in 40 normal rabbits was 0.88 to 3.38 minutes.

GP IIb IIIa = GP IIb IIIa (Homo sapiens, UniProt P05106+P08514); test: GP IIb IIIa -von Willebrand factor (vWF) ELISA Assay; assay type: binding; design: GP IIb IIIa, prepared by the method of Fitzgerald et al; from tissue; conditions: GP IIb IIIa-coated plates, vWF; read-out: ELISA IC50 GPIIb IIIa vWF
Sequence of GP IIb IIIa (P08514 32-887 limits assumed): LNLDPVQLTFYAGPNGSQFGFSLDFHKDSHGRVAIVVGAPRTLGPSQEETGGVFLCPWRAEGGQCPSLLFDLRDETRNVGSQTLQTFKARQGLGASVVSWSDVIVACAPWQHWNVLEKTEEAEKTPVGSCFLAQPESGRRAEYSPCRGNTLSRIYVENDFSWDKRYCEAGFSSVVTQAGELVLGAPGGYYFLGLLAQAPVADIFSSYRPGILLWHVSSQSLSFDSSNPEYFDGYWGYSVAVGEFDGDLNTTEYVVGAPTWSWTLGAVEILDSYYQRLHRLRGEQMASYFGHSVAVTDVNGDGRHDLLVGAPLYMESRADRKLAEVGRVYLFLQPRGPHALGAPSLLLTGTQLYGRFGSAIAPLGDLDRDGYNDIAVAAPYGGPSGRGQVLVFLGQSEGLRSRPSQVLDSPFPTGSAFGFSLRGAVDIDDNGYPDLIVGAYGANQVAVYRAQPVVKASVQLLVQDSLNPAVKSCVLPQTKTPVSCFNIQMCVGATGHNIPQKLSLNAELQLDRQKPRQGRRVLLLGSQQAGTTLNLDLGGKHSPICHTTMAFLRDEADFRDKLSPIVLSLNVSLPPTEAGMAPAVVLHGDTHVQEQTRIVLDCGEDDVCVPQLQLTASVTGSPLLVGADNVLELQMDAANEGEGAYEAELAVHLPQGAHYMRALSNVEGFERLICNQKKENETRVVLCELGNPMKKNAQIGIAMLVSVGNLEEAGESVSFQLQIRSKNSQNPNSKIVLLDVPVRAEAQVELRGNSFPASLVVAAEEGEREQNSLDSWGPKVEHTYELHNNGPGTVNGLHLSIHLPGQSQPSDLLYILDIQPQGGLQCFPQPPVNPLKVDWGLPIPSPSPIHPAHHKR
Sequence of GP IIb IIIa (P08514 891-1039 partner limits assumed): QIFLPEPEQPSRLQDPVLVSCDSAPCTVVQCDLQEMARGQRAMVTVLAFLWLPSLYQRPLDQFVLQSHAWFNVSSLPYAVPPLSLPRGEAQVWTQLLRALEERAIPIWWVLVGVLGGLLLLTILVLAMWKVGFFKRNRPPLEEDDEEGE
Sequence of GP IIb IIIa (P05106 27-788): as the sequence (P05106 27-788) above
Method: Microtiter plates are coated with 1.0 μg/ml GP IIb IIIa, prepared by the method of Fitzgerald et al., (Anal. Biochem. 151:169-177 [1985]) and allowed to incubate overnight in coat buffer. The plates are then washed three times in wash buffer (0.05% Tween 20 in PBS) and 150 μl of assay buffer is added and allowed to incubate for 1-2 hours at room temperature on plate shaker. The plates are washed three times and 50 μl of 2x inhibitor in assay buffer (Assay buffer: 0.5% BSA/50 mM Tris, 100 mM NaCl, 1.0 mM CaCl2, 1.0mM MgCl2, 1.0 mM MnCl2; coat buffer is the same but without BSA) is added. Fifty μl of 4.0 μg/ml vWF (prepared as described by Ledford et al., Thrombosis and Haemostasis, 64(4): 569-575 [1990]) in assay buffer is then added and allowed to incubate for one hour at room temperature on plate-shaker. The plates are washed three times and the antibody mixture is added (1:5000 of mouse anti-vWF and 1:5000 of rabbit-anti-mouse-Fc-HRP, both commercially available) in assay buffer and incubated for 1 hour at room temperature on plate-shaker. Plates are again washed three times and 100 μl of substrate solution (10 mg OPD, 6.5 μl H2 O2, 15 ml phosphate citrate buffer) is added and incubated at room temperature. The color change of OPD/H2 O2 reagent is read at 492 nm with a 405 nm reference wavelength on the filter photometer.

| Compound | IC50 [1] [nM] | IC50 [2] [nM] | cutaneous bleeding time, result in words [3] | Rabbit BT Ratio [3] | IC50 (GP IIb IIIa) [nM] | increase in cutaneous bleeding time ([3]; dosed to 95% inhibition of platelet aggregation) [times] |
| --- | --- | --- | --- | --- | --- | --- |
| CC1(C)SCC(=O)N[C@H](Cc2ccc(O)cc2)C(=O)N[C@@H](CCCCN)C(=O)NCC(=O)N[C@@H](CC(=O)O)C(=O)N[C@@H]1C(=O)N[C@@H](CCCCN)C(N)=O [7/17, cyclo-S-acetyl-dTyr--Lys--Gly--Asp--Pen--Lys--NH2] ({CH2CO}-[dY]KGD[Pen]K-NH2; thioether N-5) | 100000 | 90 | without substantial increased cutaneous bleeding time | 1.13 and 1.0 | 73.1 |  |
| N=C(N)NCCC[C@@H]1NC(=O)[C@@H](Cc2ccc(O)cc2)NC(=O)CSC[C@@H](C(=O)N[C@@H](CCCCN)C(N)=O)NC(=O)[C@H](CC(=O)O)NC(=O)CNC1=O [7/3, cyclo-S-acetyl-dTyr--Arg--Gly--Asp--Cys--Lys--NH2] ({CH2CO}-[dY]RGDCK-NH2; thioether N-5) | 60 | 320 |  | 1.95 | 15.9 | 1.95 |
| N=C(N)NCCC[C@@H]1NC(=O)[C@@H](Cc2ccc(O)cc2)NC(=O)CSC[C@@H](C(=O)NCCCCCN)NC(=O)[C@H](CC(=O)O)NC(=O)CNC1=O [8/13, cyclo-S-acetyl-dTyr--Arg--Gly--Asp--Cys--NH--X (X = pentylamine)] ({CH2CO}-[dY]RGDC-{NH(CH2)5NH2}; thioether N-5) | 32 | 590 |  | 1.13 | 5.3 |  |
| N=C(N)NCCC[C@@H]1NC(=O)[C@@H](Cc2ccc(O)cc2)NC(=O)CSC[C@@H](C(=O)NCCCN)NC(=O)[C@H](CC(=O)O)NC(=O)CNC1=O [8/22, cyclo-S-acetyl-dTyr--Arg--Gly--Asp--Cys--NH--X (X = propyl amine)] ({CH2CO}-[dY]RGDC-{NH(CH2)3NH2}; thioether N-5) | 36 | 387 |  | 1.27 | 4.73 |  |
| N=C(N)NCCC[C@@H]1NC(=O)[C@@H](Cc2ccc(O)cc2)NC(=O)C(CCCCN)SC[C@@H](C(=O)O)NC(=O)[C@H](CC(=O)O)NC(=O)CNC1=O (single isomer, unassigned) [9/10, cyclo-S-2-L-(6-aminocaproyl)-Lys--dTyr--Arg--Gly--Asp--Cys--OH] | 9.6 | 498 |  | 8.17 | 0.785 |  |
| N=C(N)NCCC[C@@H]1NC(=O)[C@@H](Cc2ccc(O)cc2)NC(=O)CCC[C@@H](C(=O)N[C@@H](CCCCN)C(N)=O)NC(=O)[C@H](CC(=O)O)NC(=O)CNC1=O [10/20, cyclo(1-5)dTyr--Arg--Gly--Asp--L-α-aminoadipic acid-Lys--NH2] ([dY]RGD[Aad]K-NH2; lactam N-5) | 20 | 183 |  | 2,0 | 2.74 |  |
| N=C(N)NCCC[C@@H]1NC(=O)[C@@H](Cc2ccc(O)cc2)NC(=O)CSC[C@@H](C(=O)NCCN)NC(=O)[C@H](CC(=O)O)NC(=O)CNC1=O [8/23, cyclo-S-acetyl-dTyr--Arg--Gly--Asp--Cys--NH--X (X = ethyl amine)] ({CH2CO}-[dY]RGDC-Ethylenediamine; thioether N-5) | 35 | 470 |  | 0.81 | 4.67 |  |
